Assay results published in patent publication US20050203059A1, “Methods and compositions for treatment of ischemia” (priority 2002, published 2005).

Test system: transient middle cerebral artery occlusion (MCAO) in SD rats
Experiment: Transient (90 min.) middle cerebral artery occlusion (MCAO) in SD rats
Type: in vivo, rat
Settings: 90 min MCAO, 25 mg/kg intravenous bolus at occlusion, then 50 mg/kg subcutaneous repeatedly, histology at 3 days, FIG. 2
Description: 1. Transient focal cerebral ischemia: A rodent model of transient middle cerebral artery occlusion (MCA) occlusion was used to determine the effect of a representative GSK3 inhibitor compound of the invention, 6-[(2-{[6-(2,4-dichlorophenyl)-5-imidazolyl-2-pyridyl]amino}ethyl)amino]pyridine-3-carbonitrile (CT 99025) in the inhibition of ischemic damage due to stroke. Ischemia was induced using an occluding intraluminal suture model (M. A. Yenari et al., “Time-course and treatment response with SNX-111, an N-type calcium channel blocker, in a rodent model of focal cerebral ischemia using diffusion-weighted MRI,” Brain Res 739:3645 (1996)). Animals were anesthetized with 3% halothane (1-2% maintenance) via face mask. Depth of anesthesia was monitored every 15 minutes by checking toe pinch, and the maintenance halothane levels were adjusted accordingly. […] During the surgical procedure, the following parameters were monitored and maintained in the normal physiological range: mean arterial blood pressure (MABP, measured via a femoral artery catheter), respiratory rate, rectal temperature, heart rate, arterial blood gases, blood glucose, and hematocrit. […]
3. […] Regions without staining were delineated using a computer assisted image analysis program (MCID, St. Catherine's, Ottawa), and expressed as the percent injury of the ipsilateral hemisphere. […]

6-[(2-{[6-(2,4-dichlorophenyl)-5-imidazolyl-2-pyridyl]amino}ethyl)amino]pyridine-3-carbonitrile [CT 99025]
ischemic area (percent injury of the ipsilateral hemisphere) versus vehicle control: substantially reduced
